Test system: HCV replicon
Experiment: HCV replicon replication assay (NPTII ELISA)
Assay type: cell-based, Hepatitis C virus (Huh-7 cells)
Details: Hepatitis C virus, Huh-7, 72 h, inhibition of HCV replicon replication in Huh-7 HCV replicon-containing cells, three days incubation, NPT level by ELISA; read-out: EC50
Summary of the method: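 Huh-7 cells carrying a Bartenschlager NPTII (neo) HCV replicon, treated 3 days at 37 °C with compound, generally 6 concentrations from 10 to 0.03 micromolar, in equal DMSO across wells. NPTII level, proportional to replication, read by capture ELISA on methanol:acetone-fixed cells; interferon alpha positive control; toxicity scored visually or by MTS.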

SMILES: CCCCCOc1ccc(N(C)c2nc(-c3ccc(CN4CCN(C)CC4)nc3)cs2)cc1C(F)(F)F [Compound 10, N-methyl-4-(6-((4-methylpiperazin-1-yl)methyl)pyridin-3-yl)-N-(4-(pentyloxy)-3-(trifluoromethyl)phenyl)thiazol-2-amine]
- EC50: < 1 µM

SMILES: CCCCCOc1ccc(N(C(C)=O)c2nc(-c3ccc(CN(C)C)nc3)cs2)cc1C(F)(F)F [Compound 16, N-(4-(6-((dimethylamino)methyl)pyridin-3-yl)thiazol-2-yl)-N-(4-(pentyloxy)-3-(trifluoromethyl)phenyl)acetamide]
- EC50: 1 to 10 µM

SMILES: CCCCCCCCOc1ccc(N(C(=O)C(N)=O)c2nc(-c3cccnc3)cs2)cc1C(F)(F)F [Compound 131, N1-(4-(octyloxy)-3-(trifluoromethyl)phenyl)-N1-(4-(pyridin-3-yl)thiazol-2-yl)oxalamide]
- EC50: < 1 µM

SMILES: CCCCCOc1ccc(N(C(N)=O)c2nc(-c3ccc(C(=O)N(C)C)nc3)cs2)cc1C(F)(F)F [Compound 77, N,N-dimethyl-5-(2-(1-(4-(pentyloxy)-3-(trifluoromethyl)phenyl)ureido)thiazol-4-yl)picolinamide]
- EC50: < 1 µM

SMILES: CCCCCCCC(F)(F)c1ccc(N(C(C)=O)c2nc(-c3cccnc3)cs2)cc1 [Compound 154, N-(4-(1,1-difluorooctyl)phenyl)-N-(4-(pyridin-3-yl)thiazol-2-yl)acetamide]
- EC50: < 1 µM

SMILES: CCCCCOc1ccc(N(C)c2nc(C(=O)Nc3ccc(Cl)cc3)cs2)cc1C(F)(F)F [Compound 4, N-(4-chlorophenyl)-2-(methyl(4-(pentyloxy)-3-(trifluoromethyl)phenyl)amino)thiazole-4-carboxamide]
- EC50: 1 to 10 µM

SMILES: CCCCOc1ccc(N(C(N)=O)c2nc(-c3ccc(O)c(C(N)=O)c3)cs2)cc1C(F)(F)F [Compound 133, 5-(2-(1-(4-butoxy-3-(trifluoromethyl)phenyl)ureido)thiazol-4-yl)-2-hydroxybenzamide]
- EC50: < 1 µM

SMILES: CCCCCOc1ccc2c(c1)[nH]c(=O)n2-c1nc(-c2cccnc2)cs1 [Compound 127, 5-(pentyloxy)-1-(4-(pyridin-3-yl)thiazol-2-yl)-1H-benzo[d]imidazol-2(3H)-one]
- EC50: 1 to 10 µM

SMILES: CCCCCOc1ccc(N(C(=O)C(C)C)c2nc(-c3cccnc3)cs2)cc1F [Compound 25, N-(3-fluoro-4-(pentyloxy)phenyl)-N-(4-(pyridin-3-yl)thiazol-2-yl)isobutyramide]
- EC50: < 1 µM

SMILES: CCCCCCCOc1ccc(N(C(=O)C(=O)OC)c2nc(-c3ccc(Cl)s3)cs2)cc1 [Compound 98, methyl 2-((4-(5-chlorothiophen-2-yl)thiazol-2-yl)(4-(heptyloxy)phenyl)amino)-2-oxoacetate]
- EC50: < 1 µM

SMILES: CCCCCOc1ccc(N(C(=O)C(=O)OC)c2nc(-c3ccc(F)cc3)cs2)cc1F [Compound 45, methyl 2-((3-fluoro-4-(pentyloxy)phenyl)(4-(4-fluorophenyl)thiazol-2-yl)amino)-2-oxoacetate]
- EC50: < 1 µM

SMILES: CCCCCCCCOc1ccc(N(C(=O)CNC(=O)OC(C)(C)C)c2nc(-c3cccnc3)c(F)s2)cc1C(F)(F)F [Compound 164, tert-butyl 2-((5-fluoro-4-(pyridin-3-yl)thiazol-2-yl)(4-(octyloxy)-3-(trifluoromethyl)phenyl)amino)-2-oxoethylcarbamate]
- EC50: < 1 µM

SMILES: CCCCCOc1ccc(N(CCN(C)C)c2nc(-c3cccnc3)cs2)cc1C(F)(F)F [Compound 11, N1,N1-dimethyl-N2-(4-(pentyloxy)-3-(trifluoromethyl)phenyl)-N2-(4-(pyridin-3-yl)thiazol-2-yl)ethane-1,2-diamine]
- EC50: 1 to 10 µM

SMILES: CCCCCOc1ccc(N(C(=O)C2CC2)c2nc(-c3cccnc3)cs2)cc1F [Compound 26, N-(3-fluoro-4-(pentyloxy)phenyl)-N-(4-(pyridin-3-yl)thiazol-2-yl)cyclopropanecarboxamide]
- EC50: < 1 µM

SMILES: CC(C)COc1ccc(N(C(N)=O)c2nc(-c3ccc4c(c3)NC(=O)CO4)cs2)cc1C(F)(F)F [Compound 149, 1-(4-isobutoxy-3-(trifluoromethyl)phenyl)-1-(4-(3-oxo-3,4-dihydro-2H-benzo[b][1,4]oxazin-6-yl)thiazol-2-yl)urea]
- EC50: < 1 µM

SMILES: CCCCCOc1ccc(N(C(=O)NCC)c2nc(-c3cccnc3)cs2)cc1C(F)(F)F [Compound 75, 3-ethyl-1-(4-(pentyloxy)-3-(trifluoromethyl)phenyl)-1-(4-(pyridin-3-yl)thiazol-2-yl)urea]
- EC50: < 1 µM

SMILES: CCCCCCCCOc1ccc(N(C(=O)OC)c2nc(-c3ccc(F)c(F)c3)cs2)cc1 [Compound 59, methyl 4-(3,4-difluorophenyl)thiazol-2-yl(4-(octyloxy)phenyl)carbamate]
- EC50: 1 to 10 µM

SMILES: CCCCCCCCOc1ccc(N(C(=O)NCC)c2nc(-c3cccnc3)cs2)cc1 [Compound 73, 3-ethyl-1-(4-(octyloxy)phenyl)-1-(4-(pyridin-3-yl)thiazol-2-yl)urea]
- EC50: > 10 µM

SMILES: CCCCCN(C)c1ccc(N(C(=O)C(=O)OC)c2nc(-c3cccnc3)cs2)cc1C(F)(F)F [Compound 53, methyl 2-((4-(methyl(pentyl)amino)-3-(trifluoromethyl)phenyl)(4-(pyridin-3-yl)thiazol-2-yl)amino)-2-oxoacetate]
- EC50: < 1 µM

SMILES: CCCCCCCCOc1ccc(N(CC(N)=O)c2nc(-c3ccc(OCC(N)=O)cc3)cs2)cc1 [Compound 82, 2-((4-(4-(2-amino-2-oxoethoxy)phenyl)thiazol-2-yl)(4-(octyloxy)phenyl)amino)acetamide]
- EC50: > 10 µM

SMILES: CCCCCOc1ccc(N(CC(=O)N(CC)CC)c2nc(-c3cccnc3)cs2)cc1C(F)(F)F [Compound 9, N,N-diethyl-2-((4-(pentyloxy)-3-(trifluoromethyl)phenyl)(4-(pyridin-3-yl)thiazol-2-yl)amino)acetamide]
- EC50: > 10 µM

SMILES: NC(=O)N(c1ccc(OCC2CCCCC2)c(F)c1)c1nc(-c2ccc3c(c2)NC(=O)CO3)cs1 [Compound 116, 1-(4-(cyclohexylmethoxy)-3-fluorophenyl)-1-(4-(3-oxo-3,4-dihydro-2H-benzo[b][1,4]oxazin-6-yl)thiazol-2-yl)urea]
- EC50: > 10 µM

SMILES: CCCCCOc1ccc(N(C(=O)C(=O)OC)c2nc(-c3ccc(F)cc3)cs2)cc1C(F)(F)F [Compound 38, methyl 2-((4-(4-fluorophenyl)thiazol-2-yl)(4-(pentyloxy)-3-(trifluoromethyl)phenyl)amino)-2-oxoacetate]
- EC50: < 1 µM

SMILES: Cc1ccc(-c2csc(N(C(N)=O)c3ccc(OCC(C)C)c(C(F)(F)F)c3)n2)cn1 [Compound 147, 1-(4-isobutoxy-3-(trifluoromethyl)phenyl)-1-(4-(6-methylpyridin-3-yl)thiazol-2-yl)urea]
- EC50: < 1 µM

SMILES: CCCCCOc1ccc(N(C(N)=O)c2nc(-c3ccccn3)cs2)cc1F [Compound 112, 1-(3-fluoro-4-(pentyloxy)phenyl)-1-(4-(pyridin-2-yl)thiazol-2-yl)urea]
- EC50: 1 to 10 µM

SMILES: CCCCCOc1ccc(N(C(=O)C(C)C)c2nc(-c3cccnc3)cs2)cc1C(F)(F)F [Compound 14, N-(4-(pentyloxy)-3-(trifluoromethyl)phenyl)-N-(4-(pyridin-3-yl)thiazol-2-yl)isobutyramide]
- EC50: < 1 µM

SMILES: CCCCCOc1ccc(N(C(=O)OC)c2nc(-c3ccncc3)cs2)cc1C(F)(F)F [Compound 36, methyl 4-(pentyloxy)-3-(trifluoromethyl)phenyl(4-(pyridin-4-yl)thiazol-2-yl)carbamate]
- EC50: < 1 µM

SMILES: CCCCCCCCOc1ccc(N(C(N)=O)c2nc(-c3cccnc3)cs2)cc1 [Compound 72, 1-(4-(octyloxy)phenyl)-1-(4-(pyridin-3-yl)thiazol-2-yl)urea]
- EC50: < 1 µM

SMILES: CC(C)COc1ccc(N(C(N)=O)c2nc(-c3ccc(F)cc3)cs2)cc1C(F)(F)F [Compound 125, 1-(4-(4-fluorophenyl)thiazol-2-yl)-1-(4-isobutoxy-3-(trifluoromethyl)phenyl)urea]
- EC50: < 1 µM

SMILES: Cc1ccc(-c2csc(N(C(N)=O)c3ccc(OCC4CCCCC4)c(F)c3)n2)cn1 [Compound 114, 1-(4-(cyclohexylmethoxy)-3-fluorophenyl)-1-(4-(6-methylpyridin-3-yl)thiazol-2-yl)urea]
- EC50: 1 to 10 µM

SMILES: CCCCCOc1ccc(N(C(=O)C(=O)OC)c2nc(-c3cccnc3)cs2)cc1C(F)(F)F [Compound 28, methyl 2-oxo-2-((4-(pentyloxy)-3-(trifluoromethyl)phenyl)(4-(pyridin-3-yl)thiazol-2-yl)amino)acetate]
- EC50: < 1 µM

SMILES: CC(C)COc1ccc(N(C(N)=O)c2nc(-c3cccnc3)cs2)cc1C(F)(F)F [Compound 151, 1-(4-isobutoxy-3-(trifluoromethyl)phenyl)-1-(4-(pyridin-3-yl)thiazol-2-yl)urea]
- EC50: < 1 µM

SMILES: CCCCCCCCc1ccc(N(C(=O)OCOC(=O)C(N)C(C)C)c2nc(-c3cccnc3)c(F)s2)cc1C(F)(F)F (stereo not shown) [Compound 186, ((5-fluoro-4-(pyridin-3-yl)thiazol-2-yl)(4-octyl-3-(trifluoromethyl)phenyl)carbamoyloxy) methyl 2-amino-3-methylbutanoate]
- EC50: < 1 µM

SMILES: CCCCCOc1ccc(N(C(=O)OC)c2nc(-c3ccc(F)c(F)c3)cs2)cc1C(F)(F)F [Compound 56, methyl 4-(3,4-difluorophenyl)thiazol-2-yl(4-(pentyloxy)-3-(trifluoromethyl)phenyl)carbamate]
- EC50: < 1 µM

SMILES: CCCCCCCCOc1ccc(N(C(N)=O)c2nc(-c3ccncc3)cs2)cc1 [Compound 80, 1-(4-(octyloxy)phenyl)-1-(4-(pyridin-4-yl)thiazol-2-yl)urea]
- EC50: > 10 µM

SMILES: CCCCCOc1ccc(N(C(C)=O)c2nc(-c3ccc(F)cc3)cs2)cc1C(F)(F)F [Compound 1, N-(4-(4-fluorophenyl)thiazol-2-yl)-N-(4-(pentyloxy)-3-(trifluoromethyl)phenyl)acetamide]
- EC50: < 1 µM

SMILES: CCCCCCOc1ccc(N(C(N)=O)c2nc(-c3ccc(F)cc3)cs2)cc1 [Compound 122, 1-(4-(4-fluorophenyl)thiazol-2-yl)-1-(4-(hexyloxy)phenyl)urea]
- EC50: < 1 µM

Source: patent US20070213301A1 (ACHILLION PHARMACEUTICALS, INC., priority 2006, published 2007)
